Test: logP determination by HPLC (EEC-Directive 79/831 Annex V. A8)
Format: physicochemical
Conditions: gradient method, acetonitrile/0.1% aqueous phosphoric acid

Compound	logP	chromatographic logP
CON=C(C(=O)N(C)SC(F)(Cl)Cl)c1ccccc1Oc1ncnc(Oc2cc(Cl)cc(Cl)c2)c1F [Example 103]	5.71	
CON=C(C(=O)N(C)SC(F)(Cl)Cl)c1ccccc1Oc1ncnc(Oc2cccc(OC)c2)c1F [Example 130]	4.68	
CCOCN(C)C(=O)C(=NOC)c1ccccc1COc1ccccc1C [Example 19]	4.02	
CCC(C)c1ccccc1Oc1ncnc(Oc2ccccc2C(=NOC)C(=O)N(C)SC(F)(Cl)Cl)c1F (stereo not drawn) [Example 134]	5.86	
C=CCc1ccccc1Oc1ncnc(Oc2ccccc2C(=NOC)C(=O)N(C)SC(F)(Cl)Cl)c1F [Example 122]	5.3	
CON=C(C(=O)N(C)Sc1ccc(OC)cc1)c1ccccc1COc1ccccc1C [Example 11]	4.98	
CON=C(C(=O)N(C)SC(F)(Cl)Cl)c1ccccc1Oc1ncnc(Oc2ccc(C)cc2C)c1F [Example 90]	5.41	
CON=C(C(=O)N(C)SC(F)(Cl)Cl)c1ccccc1Oc1ncnc(Oc2ccccc2OC(F)F)c1F [Example 94]	4.7	
CON=C(C(=O)N(C)SC(F)(Cl)Cl)c1ccccc1CON=C(C)c1cccc(F)c1 [Example 83]	5.36	
CON=C(C(=O)N(C)C(=O)N(SC(F)(Cl)Cl)c1ccc(Cl)cc1)c1ccccc1COc1ccccc1C [Example 34]	6.21	
CON=C(C(=O)N(C)SC(F)(Cl)Cl)c1ccccc1Oc1ncnc(Oc2ccccc2OC(F)(F)F)c1F [Example 93]	5.2	
CON=C(C(=O)N(C)SC(F)(Cl)Cl)c1ccccc1Oc1ncnc(Oc2cccc(C(F)(F)F)c2Cl)c1F [Example 126]	5.42	
CON=C(C(=O)N(C)SC(F)(Cl)Cl)c1ccccc1CON=C(C)c1ccc(OC)c(OC)c1 [Example 79]	4.7	
CCN(SC(F)(F)F)C(=O)C(=NOC)c1ccccc1COc1ccccc1C [Example 62]	5.3	
CON=C(C(=O)N(C)SC(F)(Cl)Cl)c1ccccc1Oc1ncnc(Oc2ccccc2)c1F [Example 88]	4.76	
CON=C(C(=O)N(C)SC(=O)OC)c1ccccc1CON=C(C)c1cccc(Cl)c1 [Example 81]	4.71	
CON=C(C(=O)NC#N)c1ccccc1COc1ccccc1C [Example 4]	3.34	
CON=C(C(=O)N(C)SC(C)(F)F)c1ccccc1COc1ccccc1C [Example 57]	4.62	
CON=C(C(=O)N(C)Sc1ccc(C(=O)OC)cc1)c1ccccc1COc1ccccc1C [Example 13]	4.89	
CON=C(C(=O)N(C)SC)c1ccccc1COc1ccccc1C [Example 54]	4.22	
CON=C(C(=O)N(C)C(=O)N1CCOCC1)c1ccccc1COc1ccccc1C [Example 36]	3.32	
CON=C(C(=O)N(C)SC(F)(Cl)Cl)c1ccccc1Oc1ncnc(Oc2cccc3c2OC(C)(C)C3)c1F [Example 96]	5.27	
CCOC(=O)N(C)C(=O)C(=NOC)c1ccccc1CON=C(C)c1cccc(C(F)(F)F)c1 [Example 38]	4.91	
CON=C(C(=O)N(C)SC(F)(Cl)Cl)c1ccccc1Oc1ncnc(Oc2cccc(C)c2[N+](=O)[O-])c1F [Example 113]	4.71	
CON=C(C(=O)N(C)C(=O)N(C)SC(F)(F)F)c1ccccc1CON=C(C)c1cccc(C(F)(F)F)c1 [Example 76]	5.22	
CON=C(C(=O)N(C)Sc1ccc(OC(F)(F)F)c(Cl)c1)c1ccccc1COc1ccccc1C [Example 23]	5.99	

Compound	logP	chromatographic logP
CON=C(C(=O)N(C)SC(F)(Cl)Cl)c1ccccc1Oc1ncnc(Oc2cccc(C(F)(F)F)c2)c1F [Example 106]	5.11	
CON=C(C(=O)N(C)SC(F)(Cl)Cl)c1ccccc1COc1ccccc1C [Example 5]	5.35	
CON=C(C(=O)N(C)SC(=O)OC)c1ccccc1COc1ccccc1C [Example 1, 2-methoximino-2-[2-(methylphenoxy)-methylphenyl]-N-methyl-N-methoxycarbonylthio-acetamide]		4.25
CON=C(C(=O)N(C)Sc1ccc(F)cc1)c1ccccc1COc1ccccc1C [Example 7]	5.11	
CCc1ccc(Oc2ncnc(Oc3ccccc3C(=NOC)C(=O)N(C)SC(F)(Cl)Cl)c2F)cc1 [Example 131]	5.38	
CON=C(C(=O)N(C)SC(F)(Cl)Cl)c1ccccc1Oc1ncnc(Oc2cccc(C)c2C)c1F [Example 92]	5.34	
CON=Cc1cccc(Oc2ncnc(Oc3ccccc3C(=NOC)C(=O)N(C)SC(F)(Cl)Cl)c2F)c1 [Example 100]	5.81	
CON=C(C(=O)N(C)SC(F)(Cl)Cl)c1ccccc1Oc1ncnc(Oc2ccccc2F)c1F [Example 105]	4.73	
CON=C(C(=O)N(C)SC(F)(Cl)Cl)c1ccccc1Oc1ncnc(Oc2ccc(N)c(Cl)c2Cl)c1F [Example 136]	4.68	
CON=C(C(=O)N(C)Sc1cccc(C(F)(F)F)c1)c1ccccc1COc1ccccc1C [Example 22]	5.5	
CCSCc1ccccc1Oc1ncnc(Oc2ccccc2C(=NOC)C(=O)N(C)SC(F)(Cl)Cl)c1F [Example 95]	5.36	
CON=C(C(=O)N(C)SC(F)(F)F)c1ccccc1CON=C(C)c1cccc(C(F)(F)F)c1 [Example 75]	5.36	
CCOC(=O)N(C)C(=O)C(=NOC)c1ccccc1Oc1ccccc1 [Example 41]	3.59	
CON=C(C(=O)N(C)SC(F)(Cl)Cl)c1ccccc1COc1cc(F)ccc1F [Example 69]	4.86	
CON=C(C(=O)N(C)C(=O)N(C)SC(F)(F)F)c1ccccc1COc1ccccc1C [Example 59]	4.75	
CON=C(C(=O)N(C)SC(F)(Cl)Cl)c1ccccc1Oc1ncnc(Oc2ccccc2C#N)c1F [Example 119]	4.28	
CON=C(C(=O)N(C)SC(F)(F)F)c1ccccc1CON=C(C)c1cccc(Cl)c1 [Example 78]	5.39	
CON=C(C(=O)N(C)SC(F)(F)F)c1ccccc1COc1ccccc1C [Example 56]	4.93	
CON=C(C(=O)N(C)C(=O)OCCBr)c1ccccc1COc1ccccc1C [Example 37]	4.6	
CON=C(C(=O)N(C)SC(F)(Cl)Cl)c1ccccc1Oc1ncnc(Oc2cccc(Cl)c2C)c1F [Example 86]	5.59	
CON=C(C(=O)N(C)SC(F)(F)F)c1ccccc1COc1cc(C)ccc1C [Example 68]	5.25	
CON=C(C(=O)N(C)SC(F)(Cl)Cl)c1ccccc1Oc1ncnc(Oc2ccc(Br)cc2)c1F [Example 104]	5.19	
CON=C(C(=O)N(C)C(=O)C(=O)OC)c1ccccc1COc1ccccc1C [Example 26]	3.96	
CCOC(=O)N(C(=O)OCC)C(=O)C(=NOC)c1ccccc1COc1ccccc1C [Example 29]	4.42	
CON=C(C(=O)N(C)Sc1ccccc1)c1ccccc1CON=C(C)c1cccc(C(F)(F)F)c1 [Example 72]	5.48	
CON=C(C(=O)N(C)SC(F)(Cl)Cl)c1ccccc1Oc1ncnc(Oc2ccc(OC)cc2)c1F [Example 108]	4.63	

Compound	logP	chromatographic logP
CCOCN(C)C(=O)C(=NOC)c1ccccc1Oc1ccccc1 [Example 42]	3.36	
CON=C(C(=O)N(C)SC(F)(Cl)Cl)c1ccccc1CON=C(C)c1cccc(Cl)c1 [Example 77]	5.79	
CON=C(C(=O)N(C)SC(F)(Cl)Cl)c1ccccc1Oc1ncnc(Oc2cccc(C=O)c2Cl)c1F [Example 87]	4.72	
CON=C(C(=O)N(C)SC(F)(Cl)Cl)c1ccccc1Oc1ncnc(Oc2cccc(Br)c2)c1F [Example 101]	5.39	
CON=C(C(=O)N(SC(F)(F)F)C1CC1)c1ccccc1COc1ccccc1C [Example 61]	5.17	
CON=C(C(=O)N(C)SC(F)(Cl)Cl)c1ccccc1Oc1ncnc(Oc2c(C)cccc2C)c1F [Example 97]	5.4	
CON=C(C(=O)N(C)SC(F)(Cl)Cl)c1ccccc1Oc1ncnc(Oc2ccc(OC(F)(F)F)cc2)c1F [Example 133]	5.3	
CON=C(C(=O)N(C)C#N)c1ccccc1COc1ccccc1C [Example 10]	3.67	
CON=C(C(=O)N(C)SC(F)(Cl)Cl)c1ccccc1OC [Example 146]	3.69	
CON=C(C(=O)N(C)SC(F)(Cl)Cl)c1ccccc1Oc1ncnc(Oc2ccccc2OC)c1F [Example 129]	4.57	
CON=C(C(=O)N(C)SC(F)(Cl)Cl)c1ccccc1Oc1ncnc(Oc2ccc(C#N)cc2)c1F [Example 107]	4.34	
CON=C(C(=O)N(C)SC(F)(Cl)Cl)c1ccccc1OC(=O)c1c(F)cccc1F [Example 144]	4.41	
CON=C(C(=O)N(C)C(=O)N(C)SC(F)(Cl)Cl)c1ccccc1COc1ccccc1C [Example 16]	5.08	
CON=C(C(=O)N(C)SC(F)(Cl)Cl)c1ccccc1COc1cccc(-c2ccccc2)c1 [Example 65]	5.77	
CON=C(C(=O)N(C)C(=O)N(C)SC(F)(Cl)Cl)c1ccccc1Oc1ccccc1 [Example 49]	4.53	
CON=C(C(=O)N(C)SC(F)(Cl)Cl)c1ccccc1Oc1ncnc(Oc2ccc(OC(F)(F)F)cc2C)c1F [Example 138]	5.65	
CON=C(C(=O)N(C)SC(F)(Cl)Cl)c1ccccc1Oc1ncnc(Oc2ccccc2Cl)c1F [Example 3]	5.05	
CON=C(C(=O)N(C)SC(Cl)(Cl)Cl)c1ccccc1COc1ccccc1C [Example 6]	5.56	
CON=C(C(=O)N(C)SC(F)(Cl)Cl)c1ccccc1Oc1ncnc(Oc2ccc(F)cc2F)c1F [Example 116]	4.85	
CON=C(C(=O)N(C)SC(F)(Cl)Cl)c1ccccc1Oc1ncnc(Oc2cccc(F)c2)c1F [Example 118]	4.76	
CON=C(C(=O)N(C)SC(F)(Cl)Cl)c1ccccc1Oc1ncnc(Oc2ccc(I)cc2)c1F [Example 127]	5.35	
CCc1ccccc1Oc1ncnc(Oc2ccccc2C(=NOC)C(=O)N(C)SC(F)(Cl)Cl)c1F [Example 109]	5.25	
CON=C(C(=O)N(C)C(=O)OC)c1ccccc1COc1ccccc1C [Example 33]	4.11	
CON=C(C(=O)N(C)Sc1ccc(C)cc1)c1ccccc1COc1ccccc1C [Example 24]	5.45	
CON=C(C(=O)N(C)Sc1ccccc1)c1ccccc1COc1ccccc1C [Example 21]	5.11	
CON=C(C(=O)N(C)SC(F)(Cl)Cl)c1ccccc1CON=C(C)c1cccc(C(F)(F)F)c1 [Example 32]	5.74	
